Molecular target: T1, ChMDH (Cladosporium herbarum, UniProt P0C0Y5)
T1 construct: full length, codon-optimised synthetic gene, pET-28a, E. coli BL21(DE3), N-terminal His-tag cleaved, tetramer
Assay: X-ray crystal structure, […] Å
Type: binding
Details: co-crystallised with 5 mM NADP+, pH 7.0, 4 °C; active site

T1 sequence (P0C0Y5 whole entry): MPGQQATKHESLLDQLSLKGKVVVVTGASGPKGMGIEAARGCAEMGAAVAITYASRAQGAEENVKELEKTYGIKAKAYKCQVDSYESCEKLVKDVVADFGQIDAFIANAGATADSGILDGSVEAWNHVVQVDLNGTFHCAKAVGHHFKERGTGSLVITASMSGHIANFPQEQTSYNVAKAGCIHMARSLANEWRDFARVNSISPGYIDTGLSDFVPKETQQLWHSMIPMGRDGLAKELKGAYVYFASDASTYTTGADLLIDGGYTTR

NC(=O)c1ccc[n+]([C@@H]2O[C@H](COP(=O)(O)OP(=O)(O)OC[C@H]3O[C@@H](n4cnc5c(N)ncnc54)[C@H](OP(=O)(O)O)[C@@H]3O)[C@@H](O)[C@H]2O)c1 [NADP^+]
X-ray crystal structure, 2.04 Å: ChMDH (the third orphan allergen selected for study) in complex with NADP^+ was determined

From PMC9489553, “Biochemical and clinical studies of putative allergens to assess what distinguishes them from other non-allergenic proteins in the same family” (Transgenic Research, 2022)
